Measured values published in patent publication US9434711B2 (Janssen Pharmaceutica, NV, priority 2007, dated 2016).

Target: canine TRPM8 (Canis lupus familiaris, UniProt Q1A7N1)
Test: In Vitro Canine TRPM8 Functional Assay (Ca2+ fluorescence, icilin activation)
Format: cell-based
Settings: for IC50: HEK293 cells stably expressing canine TRPM8, icilin activation, eight-point dose-response, read-out: IC50; for inhibition at 0.2 µM / % Inh @ 0.2 (μM): compound at 0.2 μM, canine TRPM8, icilin activation; for inhibition at 0.2 µM: read-out: % Inh @ 0.2
In short: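 Readout is the intracellular Ca2+ fluorescence change, measured by FLIPR or FDSS, in HEK293 cells stably expressing canine TRPM8. Potency (EC50 or IC50) is fitted from eight concentrations averaged over quadruplicate wells.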

Chain of canine TRPM8 (Q1A7N1 1-1104): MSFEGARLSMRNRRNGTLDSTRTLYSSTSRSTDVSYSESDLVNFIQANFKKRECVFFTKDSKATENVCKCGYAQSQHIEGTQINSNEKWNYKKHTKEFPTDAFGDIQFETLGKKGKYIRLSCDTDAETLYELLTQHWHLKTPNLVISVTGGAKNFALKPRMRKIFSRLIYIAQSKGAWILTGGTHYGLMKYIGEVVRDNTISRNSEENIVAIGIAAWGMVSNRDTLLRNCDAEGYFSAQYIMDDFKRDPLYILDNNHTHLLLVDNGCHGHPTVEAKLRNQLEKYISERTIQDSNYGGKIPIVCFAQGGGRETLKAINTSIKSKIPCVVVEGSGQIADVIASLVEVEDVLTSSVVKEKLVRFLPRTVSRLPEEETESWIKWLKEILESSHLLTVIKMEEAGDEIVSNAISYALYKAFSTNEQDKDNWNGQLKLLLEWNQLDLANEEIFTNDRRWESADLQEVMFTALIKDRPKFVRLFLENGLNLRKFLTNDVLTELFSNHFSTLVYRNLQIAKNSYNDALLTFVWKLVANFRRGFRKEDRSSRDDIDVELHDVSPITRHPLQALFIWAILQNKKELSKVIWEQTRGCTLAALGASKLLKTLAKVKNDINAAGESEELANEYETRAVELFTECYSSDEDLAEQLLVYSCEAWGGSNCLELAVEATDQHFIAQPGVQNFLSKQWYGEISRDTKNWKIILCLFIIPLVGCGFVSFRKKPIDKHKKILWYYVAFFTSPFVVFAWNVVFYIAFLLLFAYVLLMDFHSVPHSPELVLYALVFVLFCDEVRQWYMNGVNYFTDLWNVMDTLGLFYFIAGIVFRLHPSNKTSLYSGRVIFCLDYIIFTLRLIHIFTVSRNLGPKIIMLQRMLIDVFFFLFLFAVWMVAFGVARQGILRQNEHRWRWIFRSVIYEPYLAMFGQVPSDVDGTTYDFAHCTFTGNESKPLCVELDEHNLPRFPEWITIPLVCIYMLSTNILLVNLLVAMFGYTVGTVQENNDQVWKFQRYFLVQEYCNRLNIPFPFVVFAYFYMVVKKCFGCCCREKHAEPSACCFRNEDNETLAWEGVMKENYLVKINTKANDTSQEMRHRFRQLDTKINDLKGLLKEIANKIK

IC50 [nM] | inhibition at 0.2 µM [%] | SMILES | % Inh @ 0.2 (μM) [%]
6.1 | 101 | Cc1c(N(CCC(F)(F)F)S(=O)(=O)c2ccc(C(=O)O)cc2F)sc2ccccc12 [Compound 590, N-(3-Methyl-benzo[b]thiophen-2-yl)-N-(3,3,3-trifluoro-propyl)-2-fluoro-4-carboxy-benzenesulfonamide] | 
4.2 | 101 | Cc1c(N(CCCCC(F)(F)F)S(=O)(=O)c2ccc(C(=O)O)cc2F)sc2ccccc12 [Compound 591, N-(3-Methyl-benzo[b]thiophen-2-yl)-N-(5,5,5-trifluoro-pentyl)-2-fluoro-4-carboxy-benzenesulfonamide] | 
7.6 | 101 | CCCCN(c1sc2ccccc2c1C)S(=O)(=O)c1ccc(C(=O)O)cc1F [Compound 593, N-(3-Methyl-benzo[b]thiophen-2-yl)-N-(butyl)-2-fluoro-4-carboxy-benzenesulfonamide] | 
8.9 | 101 | COC(=O)CCS(=O)(=O)N(CCC1CC1)c1sc2ccccc2c1C [Compound 600, N-(2-Cyclopropyl-ethyl)-N-(3-methyl-benzo[b]thiophen-2-yl)-2-carbomethoxy-ethanesulfonamide] | 
 | 100 | COC(=O)CCS(=O)(=O)N(CCC(F)(F)F)c1sc2ccccc2c1C [Compound 601, N-(3-Methyl-benzo[b]thiophen-2-yl)-N-(3,3,3-trifluoro-propyl)-2-carbomethoxy-ethanesulfonamide] | 
22.1 | 101 | COC(=O)CCS(=O)(=O)N(CCCC(F)(F)F)c1sc2ccccc2c1C [Compound 602, N-(3-Methyl-benzo[b]thiophen-2-yl)-N-(4,4,4-trifluoro-butyl)-2-carbomethoxy-ethanesulfonamide] | 
10.3 | 101 | COC(=O)CCS(=O)(=O)N(CCCCC(F)(F)F)c1sc2ccccc2c1C [Compound 603, N-(3-Methyl-benzo[b]thiophen-2-yl)-N-(5,5,5-trifluoro-pentyl)-2-carbomethoxy-ethanesulfonamide] | 
 | 13 | Cc1c(N(CCC(F)(F)F)S(=O)(=O)CCC(=O)O)sc2ccccc12 [Compound 604, N-(3-Methyl-benzo[b]thiophen-2-yl)-N-(3,3,3-trifluoro-propyl)-2-carboxy-ethanesulfonamide] | 
 | 18 | Cc1c(N(CCCC(F)(F)F)S(=O)(=O)CCC(=O)O)sc2ccccc12 [Compound 605, N-(3-Methyl-benzo[b]thiophen-2-yl)-N-(4,4,4-trifluoro-butyl)-2-carboxy-ethanesulfonamide] | 
90.5 | 75 | Cc1c(N(CCCCC(F)(F)F)S(=O)(=O)CCC(=O)O)sc2ccccc12 [Compound 606, N-(3-Methyl-benzo[b]thiophen-2-yl)-N-(5,5,5-trifluoro-pentyl)-2-carboxy-ethanesulfonamide] | 

Further lines, the compound ahead of its results:

SMILES | IC50 [nM] | inhibition at 0.2 µM [%] | % Inh @ 0.2 (μM) [%]
Nc1ccc(S(=O)(=O)N(CCC(F)(F)F)c2sc3ccccc3c2Br)cc1 [Compound 587, 4-Amino-N-(3-bromo-benzo[b]thiophen-2-yl)-N-(3,3,3-trifluoro-propyl)-benzenesulfonamide] | 3.9 | 100 | 
Nc1ccc(S(=O)(=O)N(CCC(F)(F)F)c2sc3ccccc3c2Br)cc1Br [Compound 588, 4-Amino-3-bromo-N-(3-bromo-benzo[b]thiophen-2-yl)-N-(3,3,3-trifluoro-propyl)-benzenesulfonamide] | 12.1 | 101 | 
Cc1c(N(CCC2CC2)S(=O)(=O)c2ccc(C(=O)O)cc2F)sc2ccccc12 [Compound 589, N-(3-Methyl-benzo[b]thiophen-2-yl)-N-(2-cyclopropyl-ethyl)-2-fluoro-4-carboxy-benzenesulfonamide] | 4.2 | 100 | 
Cc1c(N(Cc2ccc(F)c(C(F)(F)F)c2)S(=O)(=O)c2ccc(C(=O)O)cc2F)sc2ccccc12 [Compound 592, N-(3-Methyl-benzo[b]thiophen-2-yl)-N-(4-fluoro-3-trifluoromethyl-benzyl)-2-fluoro-4-carboxy-benzenesulfonamide] | 1.8 | 101 | 
O=S(=O)(c1ccc(-c2nnn[nH]2)cc1)N(CCC1CC1)c1sc2ccccc2c1Br [Compound 594, N-(3-Bromo-benzo[b]thiophen-2-yl)-N-(2-cyclopropyl-ethyl)-4-(1H-tetrazol-5-yl)-benzenesulfonamide] |  | 101 | 
O=S(=O)(c1ccc(-c2nnn[nH]2)cc1)N(CCC(F)(F)F)c1sc2ccccc2c1Br [Compound 595, N-(3-Bromo-benzo[b]thiophen-2-yl)-N-(3,3,3-trifluoro-propyl)-4-(1H-tetrazol-5-yl)-benzenesulfonamide] |  | 101 | 
O=S1NC(c2ccc(S(=O)(=O)N(CCC(F)(F)F)c3cc4ccccc4s3)cc2)=NO1 (stereo not shown) [Compound 596, N-(Benzo[b]thiophen-2-yl)-N-(3,3,3-trifluoro-propyl)-4-(3H-[1,2,3,5]oxathiadiazole-2-oxide)-benzenesulfonamide] |  |  | 17
Cc1c(N(CCC(F)(F)F)S(=O)(=O)c2ccc(C3=NOS(=O)N3)cc2)sc2ccccc12 (stereo not shown) [Compound 598, N-(3-Methyl-benzo[b]thiophen-2-yl)-N-(3,3,3-trifluoro-propyl)-4-(3H-[1,2,3,5]oxathiadiazole-2-oxide)-benzenesulfonamide] | 30.7 |  | 101
Cc1c(N(CCC(F)(F)F)S(=O)(=O)c2ccc(-c3noc(=O)[nH]3)cc2)sc2ccccc12 [Compound 599, N-(3-Methyl-benzo[b]thiophen-2-yl)-N-(3,3,3-trifluoro-propyl)-4-(5-oxo-4,5-dihydro-[1,2,4]oxadiazol-3-yl)-benzenesulfonamide] | 16.1 | 101 | 
O=S1NC(c2ccc(S(=O)(=O)N(CCC(F)(F)F)c3sc4ccccc4c3Br)cc2)=NO1 (stereo not shown) [Compound 607, N-(3-Bromo-benzo[b]thiophen-2-yl)-N-(3,3,3-trifluoro-propyl)-4-(3H-[1,2,3,5]oxathiadiazole-2-oxide)-benzenesulfonamide] | 36.8 |  | 101
O=c1[nH]c(-c2ccc(S(=O)(=O)N(CCC(F)(F)F)c3sc4ccccc4c3Br)cc2)no1 [Compound 608, N-(3-Bromo-benzo[b]thiophen-2-yl)-N-(3,3,3-trifluoro-propyl)-4-(5-oxo-4,5-dihydro-[1,2,4]oxadiazol-3-yl)-benzenesulfonamide] |  | 101 | 
O=c1[nH]c(-c2ccc(S(=O)(=O)N(CCC(F)(F)F)c3sc4ccccc4c3Cl)cc2)no1 [Compound 609, N-(3-Chloro-benzo[b]thiophen-2-yl)-N-(3,3,3-trifluoro-propyl)-4-(5-oxo-4,5-dihydro-[1,2,4]oxadiazol-3-yl)-benzenesulfonamide] | 53.7 | 99 | 
O=S1NC(c2ccc(S(=O)(=O)N(CCC3CC3)c3cc4ccccc4s3)cc2)=NO1 (stereo not shown) [Compound 610, N-(Benzo[b]thiophen-2-yl)-N-(cyclopropyl-ethyl)-4-(3H-[1,2,3,5]oxathiadiazole-2-oxide)-benzenesulfonamide] |  |  | 55
Cc1c(N(CCC2CC2)S(=O)(=O)c2ccc(C3=NOS(=O)N3)cc2)sc2ccccc12 (stereo not shown) [Compound 611, N-(3-Methyl-benzo[b]thiophen-2-yl)-N-(cyclopropyl-ethyl)-4-(3H-[1,2,3,5]oxathiadiazole-2-oxide)-benzenesulfonamide] | 14.6 |  | 101
